Measured values published in US11479770B2, “Use of p38 inhibitors to reduce expression of DUX4” (Fulcrum Therapeutics, Inc., priority 2017, dated 2022).

Key:
Format in all cases: cell-based, human
myogenin (MYOG) mRNA = assay: MYOG mRNA expression (qPCR) in FSHD myotubes; conditions: multiple concentrations
Procedure: (§1) On day 0, the media was changed to differentiation media. Plates were removed from the incubator and the growth medium was aspirated, plates were washed once with PBS, 100 μL, for 96-wells and 1 mL for a 6-well plate, 100 μL, or 2 mL of differentiation medium was added per well, 96- or 6-well respectively. Antisense oligonucleotides or drug were added at the desired concentration, and the plates were put back in the incubator and incubated for 3-4 days.
(§2) Cells were removed from the incubator and media aspirated. Cells were quickly lysed following one of the following protocols: for lysis in 96-well plates, direct lysis and one-step RT-Preamp qPCR was performed according to the protocol described below. For each 96-well, a mix containing: 19.5 μL Roche Realtime Ready lysis buffer, 0.25 μL RNAse inhibitor, 0.25 μL DNAseI (from Thermo not the included one in the kit) was prepared. 20 μL of the mix was added to each well, mixed 5 times, and incubated 5 minutes at RT or alternatively shaken vigorously for 15 minutes. Lysis was observed under the microscope. Samples were frozen −80° C. at least for 15 minutes.
For qPCR, cell lysate was diluted 1:10, and 2 μL was used for a 10 μL 1-step RT-qPCR reaction for detection of GAPDH, RPLPO, TBP, MYOG, FRG1, MYH3, ACTN2, etc. Per 10 μL reaction, the reaction mix included: 2 μL of RNA (1:10 dilution lysate), 5 μL of Fast Advanced Taqman Master Mix (2×), 0.25 μL of RT enzyme mix (40×), 0.5 μL of Taqman probe set (20×), and 2.25 μL of H2O. The following reaction protocol was run on the QuantStudio 7: 48° C. for 15 min, 50° C. for 2 min, 95° C. for 30 sec, 40×, 95° C. for 5 sec, 60° C. for 30 sec, after which the plates were read as specified by the manufacturer (Thermo).
(§3) Wild type myotubes and mature patient-derived FSHD myotubes that express DUX4 protein were treated with DMSO vehicle control or multiple concentrations of various p38α/β inhibitors with different ranges of isoform and kinome selectivity, including SB239063 (FIG. 4A), VX-702 (FIG. 4B), Pamapimod (FIG. 4C), and TAK-715 (FIG. 4D). After treatment, the control and treated cells were processed for realtime PCR quantification of MBD3L2 mRNA (DUX4 downstream gene) and myogenin (MYOG) mRNA (control) expression.

[1] = system: MBD3L2 mRNA (DUX4 downstream gene); assay: MBD3L2 mRNA expression (qPCR) in FSHD myotubes
Procedure: as §1, §2
1-step RT-Preamplification was used for detection of DUX4 downstream genes, i.e., MBD3L2, ZSCAN4, LEUTX, TRIM43, KHDC1L, and POL2RA-VIC was used as endogenous control. Per 10 μL reaction, the reaction mix included: 2.25 μL of RNA (1:10 dilution lysate), 5 μL of Taqman Pre-Amp Master Mix (2×), 0.25 μL of RT enzyme mix (40×), 2.5 μL of Taqman probe set (0.2×)*. * For pooling the TaqMan Assays, equal volumes of each 20× TaqMan® Gene Expression Assay were used, and up to 100 assays were combined. For example, to pool 50 TaqMan assays, 10 μL of each assay were combined in a microcentrifuge tube. The pooled TaqMan assays were diluted using 1× TE buffer so that each assay was at a final concentration of 0.2×. For the above example, 500 μL of 1× TE buffer was added to the pooled TaqMan assays for a total final volume of 1 mL. The QuantStudio7 protocol was used at 48° C. 15 min, 95° C. 10 min, 10 cycles: 95° C. 15 sec, 60° C. 4 min, and 4° C. infinite Samples were then diluted to 50 μL and continued with the qPCR step. Per 10 μL reaction, the reaction mix included: 2 μL of Preamp dilution, 5 μL of Fast Advanced Taqman Master Mix (2×), 0.5 μL of Taqman probe set (20×), and 2.5 μL of H2O. When multiplexing, the volume was adjusted to 10 μL total. The following program was run on the QuantStudio7: 50° C. for 2 min, 95° C. for 30 sec, 40×, 95° C. for 5 sec, 60° C. for 30 sec, and plates were read as per the manufacturers specifications (Thermo).
as §3

active Caspase-3 = assay: Apoptosis by active Caspase-3 in FSHD myotubes; conditions: 1 μM; to level similar to healthy control line
Procedure: Briefly, cells were fixed in 4% paraformaldehyde and permeabilized in […] for 10 min at room temperature. Cells were permeabilized with PBST (1× PBS solution with 0.1% Triton X-100) before blocking with 10% Normal Donkey Serum or 3% BSA (NDS) in PBST. Cells were then incubated with appropriately diluted primary antibodies in PBST with 5% NDS for 1 hours at room temperature or 12 hours at 4° C., washed with PBST for 3 times at room temperature, and then incubated with desired secondary antibodies in TBST with 5% NDS and DAPI to counterstain the nuclei. DUX4 was detected by immunocytochemistry using the E5-5 antibody in differentiated FSHD myotubes. Activated Caspase-3 was detected using a commercially available antibody (https://www.cellsignal.com/products/primary-antibodies/cleaved-caspase-3-asp175-antibody/9661).
Apoptosis was measured by active Caspase-3 levels in FSHD myotubes in vitro as described in Materials and Methods. Apoptosis was detected in a sporadic manner in a subset of myotubes in culture as shown by the white circles and magnified region in FIG. 9A. Active Caspase-3 signal was quantified in FSHD myotubes that had been treated with FTX-1821 at different concentrations (FIG. 9B). […] No change in active Caspase-3 signal was observed following DMSO treatment. […]

[2] = system: ZSCAN4, TRIM43, MBD3L2, LEUTX, and KHDC1L; assay: DUX4-regulated downstream gene expression (real time PCR) in FSHD myotubes; conditions: 1 μM ASO
Procedure: Wild type myotubes were treated with DMSO control vehicle, and mature patient-derived FSHD myotubes that express DUX4 protein were treated with DMSO vehicle control or 1 μM of a DUX4 sequence-directed antisense oligonucleotide (ASO; FTX-2) purchased from Exiqon. After treatment, the myotubes were lysed in 19.5 μL of Roche Real Time Ready Lysis Buffer, 0.25 μL of DNAse1 (Ambion, AM2222), 0.25 μL of Protector RNase Inhibitor (Roche, 3335402001), and the RNA was collected in an RNeasy Micro Kit Master Mix. Expression levels of DUX4-regulated downstream genes (ZSCAN4, TRIM43, MBD3L2, LEUTX, and KHDC1L) was determined by real time PCR (ThermoFisher Scientific, 4484262), ZSCAN4 Taqman Assay (ThermoFisher Scientific, Hs00537549_m1, FAM-MGB), MYOG Taqman Assay (ThermoFisher Scientific, Hs01072232_m1, JUN-QSY), RPLPO Taqman Assay (ThermoFisher Scientific, Hs99999902_m1), and/or LEUTX Taqman Assay (ThermoFisher Scientific, Hs00418470_m1). Ct values were extracted from QuantStudio Realtime PCR software, and Genedata was used to calculate relative levels of expression using POLR2A as a housekeeping gene.

DUX4-fl mRNA = assay: DUX4 / DUX4-fl mRNA expression in FSHD myotubes
Procedure: cDNA preparation. 10 μL reactions included 1 μL of RNA (1 μg), 0.5 μL of Oligo dT, 0.5 μL of 10 mM dNTPs, and 4.5 μL of H2O. Reaction samples were incubated at 65° C. for 2 min and quickly moved to ice and held at least 1 min before adding the enzyme mix, which included 2 μL of 5× First strand Buffer, 0.5 μL of 0.1M DTT, 0.5 μL of RNAse inhibitor, 0.5 μL of SSIV RT. The samples were incubated at 55° C. for 20 min and 80° C. for 10 min, followed by cool down to 4° C. […]
DUX4 qPCR with nested primers was performed in a 10 μL reaction containing 1 μL of DUX4 pre amplification DNA, 5 μL of 2× IQ SYBR Mix, 0.4 μL of 10 μM TJ38F, 0.4 μL of 10 μM TJ41R, and 3.2 μL H2O. […] 10 seconds, then the plates were read on QuantStudio7 as per manufactures instruction (Thermo). […]
Wild type myotubes were treated with DMSO control vehicle, and mature patient-derived FSHD myotubes that express DUX4 protein were treated with DMSO vehicle control or 1 μM of a DUX4 sequence-directed antisense oligonucleotide (ASO; FTX-2) purchased from Exiqon. After treatment, the myotubes were lysed in 19.5 μL of Roche Real Time Ready Lysis Buffer, 0.25 μL of DNAse1 (Ambion, AM2222), 0.25 μL of Protector RNase Inhibitor (Roche, 3335402001), and the RNA was collected in an RNeasy Micro Kit Master Mix. […]

Cn1c(=O)c(Oc2ccc(F)cc2F)cc2cnc(NC(CCO)CCO)nc21 [FTX-839, Pamapimod]
impact to MYOG mRNA expression (myogenin (MYOG) mRNA): no impact
MBD3L2 mRNA in FSHD1 and FSHD2 primary patient myoblast lines ([1]; 1 μM, to levels similar to healthy control lines): reduction
MBD3L2 mRNA levels normalized to POLR2A mRNA ([1]; FSHD myotubes, 10, 100, and 1000 nM vs DMSO): dose-dependently reduced
MBD3L2 expression levels in four FSHD patient lines ([1]; FTCE-016, -020, -197, -196 myotubes, 1 μM, to levels similar to healthy controls): reduced
apoptosis (active caspase-3) across FSHD1 and FSHD2 lines (active Caspase-3): reduction

COc1nccc(-c2c(-c3ccc(F)cc3)ncn2C2CCC(O)CC2)n1 (stereo not drawn) [SB239063]
impact to MYOG mRNA expression (myogenin (MYOG) mRNA): no impact

CCc1nc(-c2cccc(C)c2)c(-c2ccnc(NC(=O)c3ccccc3)c2)s1 [TAK-715]
impact to MYOG mRNA expression (myogenin (MYOG) mRNA): no impact

NC(=O)c1ccc(N(C(N)=O)c2c(F)cccc2F)nc1-c1ccc(F)cc1F [VX-702]
impact to MYOG mRNA expression (myogenin (MYOG) mRNA): no impact

FTX-2: DUX4 sequence-directed antisense oligonucleotide purchased from Exiqon, CAGCGTCGGAAGGTGG (SEQ ID NO:18) (listed as DNA, chemistry not given here)
expression of DUX4 downstream target genes ZSCAN4, TRIM43, MBD3L2, LEUTX, and KHDC1L vs DMSO [2]: reduced
DUX4 expression vs DMSO vehicle control (DUX4-fl mRNA; 1 μM ASO): reduced
DUX4 expression, different dilutions (DUX4-fl mRNA; different dilutions of the ASO): dose dependent reduction
MBD3L2 expression, different dilutions ([1]; FSHD myotubes, different dilutions of the ASO): dose dependent reduction
